Measured values as given in ChEMBL document CHEMBL1153182, “Novel enoyl-ACP reductase (FabI) potential inhibitors of Escherichia coli from Chinese medicine monomers” (Bioorg Med Chem Lett, 2010).
≈ marks a conversion by molar mass, not a printed value. Calls of active or inactive are those of the source. No cut-off for these calls is given here.

Assays:
[1] = target: T1, Enoyl-[acyl-carrier-protein] reductase [NADH] FabI (Escherichia coli K-12) (UniProt P0AEK4); assay: Inhibition of Escherichia coli MG1655 enoyl-ACP reductase overexpressed in Escherichia coli M15 assessed as oxidation of NADH to NAD+ at 5 uM after 5 mins
T1 sequence (whole entry): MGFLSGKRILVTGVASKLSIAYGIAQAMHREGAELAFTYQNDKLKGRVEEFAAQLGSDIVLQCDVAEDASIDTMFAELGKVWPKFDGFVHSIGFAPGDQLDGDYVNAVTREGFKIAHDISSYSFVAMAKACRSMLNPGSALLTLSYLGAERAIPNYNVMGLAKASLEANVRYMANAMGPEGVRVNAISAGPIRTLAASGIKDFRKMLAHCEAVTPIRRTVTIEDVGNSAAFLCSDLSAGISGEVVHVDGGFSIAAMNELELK

Escherichia coli [2] = assay: Antibacterial activity against Escherichia coli MG1655; format: functional
Escherichia coli [3] = assay: Antibacterial activity against Escherichia coli M15 containing pQE30 expression vector; format: functional
Escherichia coli [4] = assay: Antibacterial activity against fabI-overexpressing Escherichia coli M15; format: functional
Escherichia coli [5] = assay: Antibacterial activity against Escherichia coli M15; format: functional
[6] = target: T2, Enoyl-[acyl-carrier-protein] reductase [NADH] FabI (Escherichia coli K-12, UniProt P0AEK4); assay: Inhibition of Escherichia coli MG1655 enoyl-ACP reductase overexpressed in Escherichia coli M15 assessed as oxidation of NADH to NAD+ after 5 mins
T2 sequence (P0AEK4 whole entry): T1 sequence (whole entry)

Escherichia coli [7] = assay: Ratio of MIC90 for fabI-overexpressing Escherichia coli M15 to MIC90 for Escherichia coli M15 containing pQE30 expression vector; format: functional
[8] = target: T1, Enoyl-[acyl-carrier-protein] reductase [NADH] FabI (Escherichia coli K-12); assay: Uncompetitive inhibition of Escherichia coli MG1655 enoyl-ACP reductase overexpressed in Escherichia coli M15 assessed as oxidation of NADH to NAD+ after 5 mins by Lineweaver-Burke plot
Escherichia coli [9] = assay: Ratio of MIC90 for fabI-overexpressing Escherichia coli M15 to MIC90 for Escherichia coli M15; format: functional

Which Activity [1] does the source give for `CC(C)=CCOc1c2occc2cc2ccc(=O)oc12` here?
The Activity was “Active”.

Which Activity [1] does the source give for `OC[C@H]1O[C@@H](Oc2cc(O)cc(/C=C/c3ccc(O)cc3)c2)[C@H](O)[C@@H](O)[C@@H]1O` here?
Its Activity is “Active”.

What does the source list for `O=C(N[C@H](CO)[C@H](O)c1ccc([N+](=O)[O-])cc1)C(Cl)Cl` [CHLORAMPHENICOL]?
MIC90 (Escherichia coli [2]): 8 µg/mL (≈ 24.8 µM); MIC90 (Escherichia coli [3]): 8 µg/mL (≈ 24.8 µM); MIC90 (Escherichia coli [4]): 8 µg/mL (≈ 24.8 µM); MIC90 (Escherichia coli [5]): 8 µg/mL (≈ 24.8 µM)

Which results are given for `COc1cc(/C=C/C(=O)CC(=O)/C=C/c2ccc(O)c(OC)c2)ccc1O` [CURCUMIN]?
MIC90 (Escherichia coli [2]): 73.7 µg/mL (≈ 200 µM); MIC90 (Escherichia coli [3]): 73.7 µg/mL (≈ 200 µM); Ki [6]: 15 µM; Ratio (Escherichia coli [7]): 7; Activity [8]: Active; MIC90 (Escherichia coli [4]): > 500 µg/mL; Ratio (Escherichia coli [9]): 7; MIC90 (Escherichia coli [5]): 73.7 µg/mL (≈ 200 µM)

With `CC[C@H]1OC(=O)[C@H](C)[C@@H](O[C@H]2C[C@@](C)(OC)[C@@H](O)[C@H](C)O2)[C@H](C)[C@@H](O[C@@H]2O[C@H](C)C[C@H](N(C)C)[C@H]2O)[C@](C)(O)C[C@@H](C)C(=O)[C@H](C)[C@@H](O)[C@]1(C)O` [ERYTHROMYCIN] as the molecule, how does the MIC90 (Escherichia coli [2]) read?
The MIC90 was 16 µg/mL (≈ 21.8 µM).

What about the MIC90 (Escherichia coli [3]) of the same molecule?
Its MIC90 is 16 µg/mL (≈ 21.8 µM).

What about the MIC90 (Escherichia coli [4]) of the same molecule?
The MIC90 was 16 µg/mL (≈ 21.8 µM).

What about the MIC90 (Escherichia coli [5]) of the same molecule?
Its MIC90 is 16 µg/mL (≈ 21.8 µM).

Which MIC90 (Escherichia coli [2]) does the source give for `O=c1c(-c2ccc(O)cc2)coc2cc(O)cc(O)c12` [GENISTEIN] here?
Its MIC90 is 378 µg/mL (≈ 1400 µM).

And the Activity [1]?
The Activity was “Active”.

And the MIC90 (Escherichia coli [3])?
The MIC90 was 378 µg/mL (≈ 1400 µM).

What about the MIC90 (Escherichia coli [4]) of the same molecule?
The MIC90 was > 500 µg/mL.

What about the MIC90 (Escherichia coli [5]) of the same molecule?
Its MIC90 is 378 µg/mL (≈ 1400 µM).

Which results are given for `O=c1cc(-c2ccc(O)c(O)c2)oc2cc(O)cc(O)c12` [LUTEOLIN]?
Ki [6]: 7.05 µM; Activity [8]: Active

Which results are given for `CO[C@H]1/C=C/O[C@@]2(C)Oc3c(C)c(O)c4c(O)c(c(/C=N/N5CCN(C)CC5)c(O)c4c3C2=O)NC(=O)/C(C)=C\C=C\[C@H](C)[C@H](O)[C@@H](C)[C@@H](O)[C@@H](C)[C@H](OC(C)=O)[C@@H]1C` [RIFAMPIN]?
MIC90 (Escherichia coli [2]): 128 µg/mL (≈ 156 µM); MIC90 (Escherichia coli [3]): 128 µg/mL (≈ 156 µM); MIC90 (Escherichia coli [4]): 128 µg/mL (≈ 156 µM); MIC90 (Escherichia coli [5]): 128 µg/mL (≈ 156 µM)

Which MIC90 (Escherichia coli [2]) does the source give for `CN[C@@H]1[C@H](O)[C@H](NC)[C@H]2O[C@@]3(O)C(=O)C[C@@H](C)O[C@H]3O[C@@H]2[C@H]1O` [SPECTINOMYCIN] here?
Its MIC90 is 20 µg/mL (≈ 60.2 µM).

What about the MIC90 (Escherichia coli [3]) of the same molecule?
The MIC90 was 20 µg/mL (≈ 60.2 µM).

And the MIC90 (Escherichia coli [4])?
Its MIC90 is 20 µg/mL (≈ 60.2 µM).

And the MIC90 (Escherichia coli [5])?
Its MIC90 is 20 µg/mL (≈ 60.2 µM).

What does the source list for `Oc1cc(Cl)ccc1Oc1ccc(Cl)cc1Cl` [TRICLOSAN]?
MIC90 (Escherichia coli [2]): 2.9 µg/mL (≈ 10 µM); MIC90 (Escherichia coli [3]): 2.9 µg/mL (≈ 10 µM); MIC90 (Escherichia coli [4]): > 500 µg/mL; MIC90 (Escherichia coli [5]): 2.9 µg/mL (≈ 10 µM)

What does the source list for GENTAMICIN?
MIC90 (Escherichia coli [2]): 8 µg/mL; MIC90 (Escherichia coli [3]): 8 µg/mL; MIC90 (Escherichia coli [4]): 8 µg/mL; MIC90 (Escherichia coli [5]): 8 µg/mL
